Assay results as given in patent US20100267561A1, “HERBICIDAL PYRIDAZINONE DERIVATIVES” (priority 2007, published 2010).

Columns and labels:
Test in all cases: Test E pre-/postemergence plant response
Assay type in all cases: in vivo
Details in all cases: scale 0 to 100
[1] = system: Italian ryegrass (Lolium multiflorum)
Text: (§1) Seeds of plant species selected from bermudagrass (Cynodon dactylon), Surinam grass (Brachiaria decumbens), large crabgrass (Digitaria sanguinalis), green foxtail (Setaria viridis), goosegrass (Eleusine indica), johnsongrass (Sorghum halepense), kochia (Kochia scoparia), pitted morningglory (Ipomoea lacunosa), purple nutsedge (Cyperus rotundus), common ragweed (Ambrosia elation), black mustard (Brassica nigra), guineagrass (Panicum maximum), dallisgrass (Paspalum dilatatum), barnyardgrass (Echinochloa crus-galli), southern (S.) sandbur (Cenchrus echinatus), common sowthistle (Sonchus oleraceous), prickly sida (Sida spinosa), Italian ryegrass (Lolium multiflorum), common purslane (Portulaca oleracea), broadleaf signalgrass (Brachiaria platyphylla), common groundsel (Senecio vulgaris), common chickweed (Stellaria media), Virginia (V.) dayflower (Commelina virginica), tropical (T.) spiderwort (Commelina benghalensis), annual bluegrass (Poa annua), naked crabgrass (Digitaria nuda), itchgrass (Rottboellia cochinchinensis), quackgrass (Elytrigia repens), Canada horseweed (Conyza canadensis), field bindweed (Convolvulus arvensis), spanishneedles (Bidens bipinnata), common mallow (Malva sylvestris) and Russian thistle (Salsola kali) were planted and treated preemergence with test chemicals formulated in a non-phytotoxic solvent mixture which included a surfactant. At the same time, plants selected from these weed species were treated with postemergence applications of some of the test chemicals formulated in the same manner. Plants ranged in height from 2 to 18 cm (1- to 4-leaf stage) for postemergence treatments.
(§2) Treated plants and controls were maintained in a greenhouse for 14 to 21 days, after which time all species were compared to controls and visually evaluated. Plant response ratings, summarized in Table E, are based on a scale of 0 to 100 where 0 is no effect and 100 is complete control. A dash (-) response means no test result.

[2] = system: annual bluegrass (Poa annua)
Text: as §1, §2

[3] = system: broadleaf signalgrass (Brachiaria platyphylla)
Text: as §1, §2

[4] = system: common mallow (Malva sylvestris)
Text: as §1, §2

[5] = system: guineagrass (Panicum maximum)
Text: as §1, §2

[6] = system: itchgrass (Rottboellia cochinchinensis)
Text: as §1, §2

[7] = system: naked crabgrass (Digitaria nuda)
Text: as §1, §2

[8] = system: pitted morningglory (Ipomoea lacunosa)
Text: as §1, §2

[9] = system: purple nutsedge (Cyperus rotundus)
Text: as §1, §2

SMILES: Cc1cc(-c2ccc(Cl)cc2)nn1-c1c(OS(C)(=O)=O)cnn(C)c1=O [Compound 36]
- Plant response rating, Ryegrass, Italian ([1]; 16 g ai/ha, Preemergence): 100
- Plant response rating, Ryegrass, Italian ([1]; 31 g ai/ha, Preemergence): 100
- Plant response rating, Ryegrass, Italian ([1]; 62 g ai/ha, Preemergence): 100
- Plant response rating, Ryegrass, Italian ([1]; Postemergence, 8 g ai/ha): 0
- Plant response rating, Ryegrass, Italian ([1]; Postemergence, 16 g ai/ha): 35
- Plant response rating, Ryegrass, Italian ([1]; Postemergence, 31 g ai/ha): 60
- Plant response rating, Ryegrass, Italian ([1]; Postemergence, 62 g ai/ha): 80
- Plant response rating, Bluegrass ([2]; 8 g ai/ha, Preemergence): 0
- Plant response rating, Bluegrass ([2]; 16 g ai/ha, Preemergence): 0
- Plant response rating, Bluegrass ([2]; 31 g ai/ha, Preemergence): 0
- Plant response rating, Bluegrass ([2]; 62 g ai/ha, Preemergence): 0
- Plant response rating, Bluegrass ([2]; Postemergence, 8 g ai/ha): 0
- Plant response rating, Bluegrass ([2]; Postemergence, 16 g ai/ha): 0
- Plant response rating, Bluegrass ([2]; Postemergence, 31 g ai/ha): 0
- Plant response rating, Bluegrass ([2]; Postemergence, 62 g ai/ha): 0
- Plant response rating, Signalgrass ([3]; 16 g ai/ha, Preemergence): 70
- Plant response rating, Signalgrass ([3]; 31 g ai/ha, Preemergence): 100
- Plant response rating, Signalgrass ([3]; 62 g ai/ha, Preemergence): 100
- Plant response rating, Signalgrass ([3]; Postemergence, 8 g ai/ha): 10
- Plant response rating, Signalgrass ([3]; Postemergence, 16 g ai/ha): 50
- Plant response rating, Signalgrass ([3]; Postemergence, 31 g ai/ha): 90
- Plant response rating, Signalgrass ([3]; Postemergence, 62 g ai/ha): 100
- Plant response rating, Mallow ([4]; 16 g ai/ha, Preemergence): 0
- Plant response rating, Mallow ([4]; 31 g ai/ha, Preemergence): 0
- Plant response rating, Mallow ([4]; 62 g ai/ha, Preemergence): 0
- Plant response rating, Mallow ([4]; Postemergence, 8 g ai/ha): 0
- Plant response rating, Mallow ([4]; Postemergence, 16 g ai/ha): 0
- Plant response rating, Mallow ([4]; Postemergence, 31 g ai/ha): 0
- Plant response rating, Mallow ([4]; Postemergence, 62 g ai/ha): 0
- Plant response rating, Guineagrass ([5]; 16 g ai/ha, Preemergence): 100
- Plant response rating, Guineagrass ([5]; 31 g ai/ha, Preemergence): 100
- Plant response rating, Guineagrass ([5]; 62 g ai/ha, Preemergence): 100
- Plant response rating, Guineagrass ([5]; Postemergence, 8 g ai/ha): 35
- Plant response rating, Guineagrass ([5]; Postemergence, 16 g ai/ha): 75
- Plant response rating, Guineagrass ([5]; Postemergence, 31 g ai/ha): 90
- Plant response rating, Guineagrass ([5]; Postemergence, 62 g ai/ha): 90
- Plant response rating, Itchgrass ([6]; 16 g ai/ha, Preemergence): 65
- Plant response rating, Itchgrass ([6]; 31 g ai/ha, Preemergence): 75
- Plant response rating, Itchgrass ([6]; 62 g ai/ha, Preemergence): 90
- Plant response rating, Itchgrass ([6]; Postemergence, 8 g ai/ha): 0
- Plant response rating, Itchgrass ([6]; Postemergence, 16 g ai/ha): 40
- Plant response rating, Itchgrass ([6]; Postemergence, 31 g ai/ha): 50
- Plant response rating, Itchgrass ([6]; Postemergence, 62 g ai/ha): 60
- Plant response rating, Crabgrass, Naked ([7]; 8 g ai/ha, Preemergence): 90
- Plant response rating, Crabgrass, Naked ([7]; 16 g ai/ha, Preemergence): 100
- Plant response rating, Crabgrass, Naked ([7]; 31 g ai/ha, Preemergence): 100
- Plant response rating, Crabgrass, Naked ([7]; 62 g ai/ha, Preemergence): 100
- Plant response rating, Crabgrass, Naked ([7]; Postemergence, 8 g ai/ha): 40
- Plant response rating, Crabgrass, Naked ([7]; Postemergence, 16 g ai/ha): 60
- Plant response rating, Crabgrass, Naked ([7]; Postemergence, 31 g ai/ha): 90
- Plant response rating, Crabgrass, Naked ([7]; Postemergence, 62 g ai/ha): 98
- Plant response rating, Morningglory ([8]; 16 g ai/ha, Preemergence): 0
- Plant response rating, Morningglory ([8]; 31 g ai/ha, Preemergence): 0
- Plant response rating, Morningglory ([8]; 62 g ai/ha, Preemergence): 0
- Plant response rating, Morningglory ([8]; Postemergence, 8 g ai/ha): 0
- Plant response rating, Morningglory ([8]; Postemergence, 16 g ai/ha): 0
- Plant response rating, Morningglory ([8]; Postemergence, 31 g ai/ha): 0
- Plant response rating, Morningglory ([8]; Postemergence, 62 g ai/ha): 0
- Plant response rating, Nutsedge, Purple ([9]; 16 g ai/ha, Preemergence): 0
- Plant response rating, Nutsedge, Purple ([9]; 31 g ai/ha, Preemergence): 0
- Plant response rating, Nutsedge, Purple ([9]; 62 g ai/ha, Preemergence): 0
- Plant response rating, Nutsedge, Purple ([9]; Postemergence, 8 g ai/ha): 0
- Plant response rating, Nutsedge, Purple ([9]; Postemergence, 16 g ai/ha): 0
- Plant response rating, Nutsedge, Purple ([9]; Postemergence, 31 g ai/ha): 0
- Plant response rating, Nutsedge, Purple ([9]; Postemergence, 62 g ai/ha): 0
